This passage reports inhibition results from patent publication US5922871A, “Terephthalamide derivatives” (Dongwha Pharmaceutical Ind. Co., Ltd., priority 1997, dated 1999).

Assay [1] concerns the target T1, HBV polymerase reverse transcriptase (HBV-RT) (Hepatitis B virus genotype D subtype ayw, UniProt P03156).
T1 construct: made in house; host or cells: E. coli
The assay is described as follows: inhibitory activity against HBV polymerase in vitro (reverse transcriptase activity). The class given is biochemical. The settings on record: read-out: Inhibitory effect of HBV-RT; for inhibition at 0.1 µg/mL: 0.1 μg/ml; for inhibition at 1 µg/mL: 1 μg/ml. An excerpt: Experiment 1: The inhibitory activity against HBV polymerase in vitro.
Recently, the inventors of the present invention have produced a recombinant HBV polymerase that is expressed from E.coli transformant, measured its enzyme activity and filed patent applications thereof [Korean Patent Application Nos. 94-3918, 96-33998 and 96-63255].
The inventions have established a method of measuring the reverse transcriptase activity of HBV polymerase in vitro. The fundamental principle is the same as the ELISA method, and after reacting the substrate with biotin- and DIG-modified nucleotide, a method of recognizing the polymerized substrate as anti-DIG antibody with peroxidase was used. […] and 20 μ of test compound were mixed and reacted at 14~30° C. for 18~24 hours. Then, the inhibitory effect of test compound against reverse trascriptase activity in the HBV polymerase was examined, compared with the results of control tests without the test compound.

The target of assay [2] is T2, RNase H of HBV polymerase (HBV-RNase H) (Hepatitis B virus ayw/France/Tiollais/1979, UniProt P03156).
T2 construct: amylose/maltose step implies MBP fusion
In words: inhibitory effects against RNase H activity of HBV polymerase. The class given is biochemical. The settings on record: read-out: Inhibitory effect of HBV-RNase H; for inhibition at 0.1 µg/mL: 0.1 μg/ml; for inhibition at 1 µg/mL: 1 μg/ml. The protocol:
Experiment 2: The inhibitory effects against RNase H activity of HBV polymerase.
1) Expression of the RNase H domain derived from human HBV polymerase
E.coli NM 522 was transformed by the expression vector pMRH respectively and the transformants were cultured in LB medium at 37° C., overnight. These growing cultures were diluted 1:100, inoculated into a glucose rich medium and incubated until OD600 reached 0.5. Then IPTG (isopropylthiogalactoside) was added into the medium of which the fine concentration was 0.5 mM. The above growing cultures were incubated again at 20° C. for 16 hours and the RNase H domain was expressed.
The above cultured broth was centrifuged for 10 minutes at 3,000 rpm and the cell pellet was washed with 10 ml of TNE column buffer (10 mN Tris-Cl, pH 8.0, 200 mM NaCl, 1 mM EDTA), and resuspended in 10 ml of TNE column buffer. The cells were freezed and thawed 4 times repeatedly, and then disrupted by sonication for 10 seconds 3 times. The crude extract prepared in the above process was centrifuged for 30 minutes at 13,000 rpm, 4° C. and the supernatant was separated. The above process was repeated 2 times and then the supernatant passed the amylose resin. The resin was washed by using column buffer with 50 times of resin volume, and the RNase H domain was eluted by using buffer containing 10 mM maltose.
In addition, the RNase H domain produced from the expression vector pMRH was purified by using histidine tag affinity column, because RNase H has a histidine tag at the C-terminus. The resin (Ni-NTA, QIAGEN) used in the histidine tag affinity column was activated by using sonication buffer (50 mM sodium phosphate, pH 8.0, 300 mM sodium chloride) and 4~5 ml of the activated resin was charged in the glass tube whose diameter was about 1 cm. The protein sample obtained from above description passed the resin at the 0.1 ml/ min flow rate and the column was washed by using washing buffer with the 100~200 times volume of protein sample (50 mM sodium phosphate, pH 6.0, 300 mM sodium chloride, 10% glycerol). The recombinant protein was eluted by washing the column with concentration gradient of 0.01~0.5 M imidazole.
As a result, the active RNase H domain was separated from the histidine tag affinity column at 30 mM concentration of imidazole. The purified RNase H domain was mixed with 50% glycerol for storage at -20° C. after the removal of imidazole from it and employed fol the screening of HBV inhibitors.
2) Preparation of the substrate of the RNase H enzyme
In order to identify the RNase H activity, RNA/DNA complex which can be used as a substrate of the RNase H enzyme was prepared by performing in vitro transcription with […].
3) Screening of active inhibitors against RNase H
The RNase H activity was measured by using recombinant RNase H enzyme and radiolabled RNA/DNA hybrid. In order to measure the RNase H activity, 1 μg of RNase H enzyme and test compound were mixed with buffer solution containing 40 mM Tris-Cl (pH 8.0), 4 mM magnesium chloride, 40 mM potassium chloride and 2 mM DTT. The mixture was pretreated on ice for 10 minutes. After pretreatment is completed, RNA/DNA hybrid was added to incubate at 37° C. for 3 hours. After the reaction was stopped, 7.5 M ammonium acetate in a volume of 1/2 and ethanol in a 3-fold volume were added. The above reaction mixture was incubated at -20° C. for more than 2 hours and centrifuged for 15 minutes at 4° C., 13,000 rpm. The supernatant was obtained and the radioactive signal of supernatant was measured by scintillation counter.
As a control, water was added instead of test compound and the inhibitory activity was calculated to compare with the control, when the radioactivity intensity on each test compound, was obtained.

Assay [3] addresses T3, HIV reverse transcriptase (HIV-RT) (Human immunodeficiency virus type 1 group M subtype B, UniProt P04585).
T3 construct: purchased Boehringer Mannheim
The assay is described as follows: in vitro inhibition test against HIV reverse transcriptase. The settings on record: read-out: Inhibitory effect of HIV-RT; for inhibition at 0.1 µg/mL: 0.1 μg/ml; for inhibition at 1 µg/mL: 1 μg/ml. The class given is biochemical, HIV (AIDS virus). The procedure:
Experiment 3: The in vitro inhibition test against HIV reverse transcriptase
The inhibitory activity in vitro was measured using a non-radioactive reverse transcriptase assay Kit (Boehringer Mannheim).
At first, 20 μl(40 ng) HIV-RT was added to the wells coated with streptavidin and with the addition of 20 μl, reaction mixture containing template/primer hybrid poly(A)/oligo(dT)15 and DIG-(digoxigenin)-dUTP, biotin-dUTP and TTP, 20 μl test compound was added and reacted at 37° C. for 1 hour. The control without test compound was used for the comparison of related activity. Since DNA containing nucleotide labeled with digoxigenin and biotine was prepared by the action of HIV-RT, it was combined with streptavidin coated at the bottom of the wells. After the reaction was completed, remaining impurities were removed by washing each well with 20 μl buffer solution (pH 7.0) for 30 seconds 5 times and with the addition of 200 μl anti-DIG-POD antibody, the mixture was reacted at 37° C. for 1 hour. For the removal of remaining impurities again, the reacting solution was washed with a buffer solution and with the addition of 200μl ABTS™ each, a substrate of POD(peroxidase), the solution was reacted at room temperature for 30 minutes. The absorbance was read by ELISA reader at 405 nm for the assay of reverse transcriptase activity and its inhibition activity.

T1 sequence (P03156 whole entry): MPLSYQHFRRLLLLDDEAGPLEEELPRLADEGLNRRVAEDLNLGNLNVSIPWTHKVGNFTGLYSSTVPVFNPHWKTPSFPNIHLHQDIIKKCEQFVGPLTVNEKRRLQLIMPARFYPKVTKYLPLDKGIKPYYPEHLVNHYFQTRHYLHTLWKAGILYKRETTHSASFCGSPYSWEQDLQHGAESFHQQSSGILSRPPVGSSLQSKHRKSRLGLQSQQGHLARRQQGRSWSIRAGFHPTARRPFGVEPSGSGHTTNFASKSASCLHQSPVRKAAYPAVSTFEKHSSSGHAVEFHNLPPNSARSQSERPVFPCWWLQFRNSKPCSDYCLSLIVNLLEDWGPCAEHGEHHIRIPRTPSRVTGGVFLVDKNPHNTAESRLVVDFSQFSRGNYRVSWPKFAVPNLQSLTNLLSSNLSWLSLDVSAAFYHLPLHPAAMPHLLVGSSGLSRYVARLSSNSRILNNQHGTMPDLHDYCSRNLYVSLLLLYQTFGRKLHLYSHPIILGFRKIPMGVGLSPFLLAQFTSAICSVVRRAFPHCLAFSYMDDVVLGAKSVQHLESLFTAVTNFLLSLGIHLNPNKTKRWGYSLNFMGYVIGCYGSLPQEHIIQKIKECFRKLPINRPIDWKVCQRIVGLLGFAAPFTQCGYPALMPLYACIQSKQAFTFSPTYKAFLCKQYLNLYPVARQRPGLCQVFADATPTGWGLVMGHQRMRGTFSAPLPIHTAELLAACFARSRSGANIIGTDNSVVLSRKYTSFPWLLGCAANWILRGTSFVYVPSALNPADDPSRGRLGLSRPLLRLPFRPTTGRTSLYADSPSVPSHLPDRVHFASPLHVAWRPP
T2 sequence (P03156 680-832): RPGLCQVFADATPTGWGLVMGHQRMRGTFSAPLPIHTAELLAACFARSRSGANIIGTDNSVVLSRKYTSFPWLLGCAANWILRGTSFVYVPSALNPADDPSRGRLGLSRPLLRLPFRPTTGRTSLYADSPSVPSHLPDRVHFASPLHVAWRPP

As to `CCN(CCO)C(=O)c1ccc(C(=O)N2CCN(c3ncccc3NC(C)C)CC2)cc1` [Compound No. 6, 1-[N-Ethyl-N-(2-hydroxyethyl)carbamoyl]-4-[1-[3-(isopropylamino)-2-pyridyl]piperazin-4-yl-carbonyl]benzene], in assay [1], the inhibition at 0.1 µg/mL amounted to 30% and the inhibition at 1 µg/mL worked out at 51%. In addition, in assay [2], the inhibition at 0.1 µg/mL worked out at 55% and the inhibition at 1 µg/mL was 83%.
In the case of `CC(C)Nc1cccnc1N1CCN(C(=O)c2ccc(C(=O)N3CCNCC3)cc2)CC1` [Compound No. 19, 1-[4-[1-[3-(Isopropylamino)-2-pyridyl]piperazin-4-yl-carbonyl]benzoyl]piperazine], the inhibition at 0.1 µg/mL in assay [2] stood at 38%; in assay [3], 43%. The inhibition at 1 µg/mL in assay [2] amounted to 53%; in assay [3], 52%.
Taken in the same sequence, the figures for `CC(C)Nc1cccnc1N1CCN(C(=O)c2ccc(C(=O)N3CCN(CCCO)CC3)cc2)CC1` [Compound No. 27, 4-(3-Hydroxypropyl)-1-[4-[1-[3-(isopropylam-ino)-2-pyridyl]piperazin-4-yl-carbonyl]benzoyl]piperazine] were 73%, 40%, 81% and 68%.
For the compound `CC(C)Nc1cccnc1N1CCN(C(=O)c2ccc(C(=O)N3CCN(CC(O)CO)CC3)cc2)CC1` (stereo not drawn) [Compound No. 31, 4-(2,3-Dihydroxypropyl)-1-[4-[1-[3-(isopropylamino)-2-pyridyl]piperazin-4-yl-carbonyl]benzoyl]piperazine], the inhibition at 0.1 µg/mL in assay [1] turned out to be 30%; in assay [2] it was 80%. In addition, the results for the inhibition at 1 µg/mL in assay [1] and in assay [2] were 52% and 85%, respectively.
As to `CC(C)Nc1cccnc1N1CCN(C(=O)c2ccc(C(=O)N[C@@H](CO)C(C)C)cc2)CC1` [Compound No. 39, 1-[N-[(1R)-2-Hydroxy-1-(1-methylethyl)ethyl]carbamoyl]-4-[1-[3-(isopropylamino)-2-pyridyl]piperazin-4-yl-carbonyl]benzene], in assay [1], the inhibition at 0.1 µg/mL was found to be 30% and the inhibition at 1 µg/mL was determined as 78%. In addition, in assay [3], the inhibition at 0.1 µg/mL came out at 25% and the inhibition at 1 µg/mL came to 75%.
With `CC(C)Nc1cccnc1N1CCN(C(=O)c2ccc(C(=O)N[C@H](CO)c3ccccc3)cc2)CC1` [Compound No. 48, 1-[N-[(1S)-2-Hydroxy-1-phenylethyl]carbamoyl]-4-[1-[3-(isopropylamino)-2-pyridyl]piperazin-4-yl-carbonyl]benzene], in assay [1], the inhibition at 0.1 µg/mL turned out to be 61% and the inhibition at 1 µg/mL worked out at 80%. Also, in assay [3], the inhibition at 0.1 µg/mL is 46% and the inhibition at 1 µg/mL came to 51%.
Take `COCCNC(=O)c1ccc(C(=O)N2CCN(c3ncccc3NC(C)C)CC2)cc1` [Compound No. 61, 4-[1-[3-(Isopropylamino)-2-pyridyl]piperazin-4-yl-carbonyl]-1-[N-(2-methoxyethyl)carbamoyl]benzene]: in assay [1], the inhibition at 0.1 µg/mL worked out at 33% and the inhibition at 1 µg/mL was 81%. Further, in assay [3], the inhibition at 0.1 µg/mL was determined as 32% and the inhibition at 1 µg/mL came out at 65%.
The matching figures for `COCCN(CCOC)C(=O)c1ccc(C(=O)N2CCN(c3ncccc3NC(C)C)CC2)cc1` [Compound No. 62, 1-[N,N-Bis(2-methoxyethyl)carbamoyl]-4-[1-[3-(isopropylamino)-2-pyridyl]piperazin-4-yl-carbonyl]benzene]: 53%, 60%, 41% and 58%.
The matching figures for `CC(C)Nc1cccnc1N1CCN(C(=O)c2ccc(C(=O)N3CCOCC3)cc2)CC1` [Compound No. 76, 4-[1-[3-(Isopropylamino)-2-pyridyl]piperazin-4-yl-carbonyl]-1-(morpholin-4-yl-carbonyl)benzene]: 49%, 79%, 43% and 52%.
The matching figures for `CC(C)Nc1cccnc1N1CCN(C(=O)c2ccc(C(=O)NCCN3CCOCC3)cc2)CC1` [Compound No. 79, 4-[1-[3-(Isopropylamino)-2-pyridyl]piperazin-4-yl-carbonyl]-1-[N-[2-(morpholin-4-yl)ethyl]carbamoyl]benzene]: 65%, 72%, 59% and 71%.
For `CC(C)Nc1cccnc1N1CCN(C(=O)c2ccc(C(=O)NCCCN3CCOCC3)cc2)CC1` [Compound No. 80, 4-[1-[3-(Isopropylamino)-2-pyridyl]piperazin-4-yl-carbonyl]-1-[N-[3-(morpholin-4-yl)propyl]carbamoyl]benzene], the inhibition at 0.1 µg/mL in assay [1] was found to be 40%; in assay [3], 43%. Further, the values for the inhibition at 1 µg/mL in assay [1] and in assay [3] were 66% and 56%, respectively.
The matching figures for `CC(C)Nc1cccnc1N1CCN(C(=O)c2ccc(C(=O)NCCN(C)C)cc2)CC1` [Compound No. 83, 1-[N-[2-(Dimethylamino)ethyl]carbamoyl]-4-[1-[3-(isopropylamino)-2-pyridyl]piperazin-4-yl-carbonyl]benzene]: 62%, 62%, 65% and 65%.
